We go through 2 compounds from ChEMBL document CHEMBL5608182, “Synthesis and evaluation of neuroactive steroids with novel pharmacophore at C-21 let identify a compound with advantageous PK profile and higher EC50 and Emax as PAM on GABAA receptor” (Eur J Med Chem, 2024).

pEC50, pIC50: −log10 of the molar value.

Usually pIC50 stands for the negative decadic logarithm of the IC50, by convention in mol/L. By Emax is commonly meant the greatest response seen or fitted, relative to the assay's reference. The pEC50 is −log10 of the EC50, conventionally taken in molar units.

The first series deals with GABA-A receptor; anion channel. Nature of the series: Inhibition of [35S]TBPS binding to GABA-A receptor in Sprague-Dawley rat brain cortical membrane incubated for 90 mins by liquid scintillation spectrometry. The class given is cell membranes, Cortex.
Details: not given
Compound `C[C@@]1(O)CC[C@H]2[C@H](CC[C@@H]3[C@@H]2CC[C@]2(C)[C@@H](C(=O)Cn4nnn(-c5cccc(F)c5)c4=O)CC[C@@H]32)C1` gave a negative-log IC50 (pIC50) of 9.00.

System in another series: not listed separately
Description: Metabolic stability in human liver microsomes assessed as compound remaining at 1 uM preincubated for 10 mins followed by NADPH addition by LC-MS analysis. The class given is ADME, Microsome. As to conditions: read-out: Stability. On the technique in general: Liver microsomes are a subcellular fraction often used to study metabolism.
Regarding `C[C@@]1(O)CC[C@H]2[C@H](CC[C@@H]3[C@@H]2CC[C@]2(C)[C@@H](C(=O)Cn4cnn(CC5CC5)c4=O)CC[C@@H]32)C1`, the remaining at 1 µM turned out to be 26.4%.
Consider `C[C@@]1(O)CC[C@H]2[C@H](CC[C@@H]3[C@@H]2CC[C@]2(C)[C@@H](C(=O)Cn4nnn(-c5cccc(F)c5)c4=O)CC[C@@H]32)C1`, for which the remaining at 1 µM was 70%.

The target in the next series is GABA-A receptor; alpha-1/beta-2/gamma-2 (Homo sapiens) (UniProt P14867+P47870+P18507). Nature of the series: Positive allosteric modulation of synaptic alpha1beta2gamma2 GABA-A receptor (unknown origin) transfected in LTK cells assessed as potentiation of GABA-induced peak current amplitude by measuring maximal efficacy at 0.01 to 10 uM at -80 mV holding potential preincubated for 30 secs followed by GABA stimulation for 2 secs by Q-patch assay relative to control. The class given is cell-based. Particulars: filed as positive allosteric modulator, dose 0.01-10 µM, time 32.0 sec.
In the case of `C[C@@]1(O)CC[C@H]2[C@H](CC[C@@H]3[C@@H]2CC[C@]2(C)[C@@H](C(=O)Cn4cnn(CC5CC5)c4=O)CC[C@@H]32)C1`, the Emax is 727%.
In the case of `C[C@@]1(O)CC[C@H]2[C@H](CC[C@@H]3[C@@H]2CC[C@]2(C)[C@@H](C(=O)Cn4nnn(-c5cccc(F)c5)c4=O)CC[C@@H]32)C1`, the Emax stood at 1120%.

System in a further series: not listed separately
Description: Drug concentration in Sprague-Dawley rat brain at 24.4 micromol/kg, IG measured after 2 hrs by LC-MS/MS analysis. Type of series: ADME, tissue-based. Particulars: in vivo, po, BLD = below limit of detection, dose 24.4 µmol/kg.
On to `C[C@@]1(O)CC[C@H]2[C@H](CC[C@@H]3[C@@H]2CC[C@]2(C)[C@@H](C(=O)Cn4nnn(-c5cccc(F)c5)c4=O)CC[C@@H]32)C1`, for which the Ct result was “Bld”.

System in another series: not listed separately
Description: Metabolic stability in human liver microsomes assessed as intrinsic clearance at 1 uM preincubated for 10 mins followed by NADPH addition by LC-MS analysis. The class given is ADME, Microsome. As to conditions: read-out: CLH.
Turning to `C[C@@]1(O)CC[C@H]2[C@H](CC[C@@H]3[C@@H]2CC[C@]2(C)[C@@H](C(=O)Cn4cnn(CC5CC5)c4=O)CC[C@@H]32)C1`, the CLint scaled at 1 µM is 38 mL/min/kg.
Same read-out and setting: for `C[C@@]1(O)CC[C@H]2[C@H](CC[C@@H]3[C@@H]2CC[C@]2(C)[C@@H](C(=O)Cn4nnn(-c5cccc(F)c5)c4=O)CC[C@@H]32)C1` the value was 11 mL/min/kg.

System in the next series: not listed separately
Nature of the series: Drug concentration in Sprague-Dawley rat brain at 24.4 micromol/kg, IG measured after 0.5 hrs by LC-MS/MS analysis. Type of series: ADME, tissue-based. Particulars: in vivo, po, dose 24.4 µmol/kg.
In turn, `C[C@@]1(O)CC[C@H]2[C@H](CC[C@@H]3[C@@H]2CC[C@]2(C)[C@@H](C(=O)Cn4nnn(-c5cccc(F)c5)c4=O)CC[C@@H]32)C1` had a Ct of 948 nmol/kg.

The target of a further series is T1, GABA-A receptor; alpha-1/beta-2/gamma-2 (Homo sapiens, UniProt P14867+P18507+P47870).
T1 sequence (P14867 whole entry): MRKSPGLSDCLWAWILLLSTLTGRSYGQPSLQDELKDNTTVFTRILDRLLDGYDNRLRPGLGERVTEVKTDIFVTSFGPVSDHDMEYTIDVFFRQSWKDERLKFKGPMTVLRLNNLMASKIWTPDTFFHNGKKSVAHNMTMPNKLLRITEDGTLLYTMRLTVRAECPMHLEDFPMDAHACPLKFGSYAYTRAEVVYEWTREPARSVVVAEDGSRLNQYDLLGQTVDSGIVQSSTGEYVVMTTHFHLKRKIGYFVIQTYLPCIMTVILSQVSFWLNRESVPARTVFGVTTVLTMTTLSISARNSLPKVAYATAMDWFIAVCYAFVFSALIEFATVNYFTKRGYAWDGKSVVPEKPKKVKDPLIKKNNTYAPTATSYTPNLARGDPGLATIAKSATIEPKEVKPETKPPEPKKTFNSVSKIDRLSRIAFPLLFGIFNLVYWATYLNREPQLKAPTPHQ
T1 sequence (P47870 whole entry): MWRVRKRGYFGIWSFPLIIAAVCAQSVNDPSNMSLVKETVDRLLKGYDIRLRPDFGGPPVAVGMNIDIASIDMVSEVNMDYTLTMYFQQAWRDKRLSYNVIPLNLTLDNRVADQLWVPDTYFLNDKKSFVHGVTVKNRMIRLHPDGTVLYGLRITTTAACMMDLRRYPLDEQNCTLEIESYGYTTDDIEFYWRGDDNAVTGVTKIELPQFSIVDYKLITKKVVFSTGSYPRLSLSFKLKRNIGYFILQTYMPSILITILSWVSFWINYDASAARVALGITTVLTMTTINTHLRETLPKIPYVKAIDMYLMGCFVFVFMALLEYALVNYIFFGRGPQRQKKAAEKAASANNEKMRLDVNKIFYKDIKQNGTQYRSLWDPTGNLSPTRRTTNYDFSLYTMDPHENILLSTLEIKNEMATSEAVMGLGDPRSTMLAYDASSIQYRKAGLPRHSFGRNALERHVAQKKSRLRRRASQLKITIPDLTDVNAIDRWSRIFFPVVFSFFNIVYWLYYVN
T1 sequence (P18507 whole entry): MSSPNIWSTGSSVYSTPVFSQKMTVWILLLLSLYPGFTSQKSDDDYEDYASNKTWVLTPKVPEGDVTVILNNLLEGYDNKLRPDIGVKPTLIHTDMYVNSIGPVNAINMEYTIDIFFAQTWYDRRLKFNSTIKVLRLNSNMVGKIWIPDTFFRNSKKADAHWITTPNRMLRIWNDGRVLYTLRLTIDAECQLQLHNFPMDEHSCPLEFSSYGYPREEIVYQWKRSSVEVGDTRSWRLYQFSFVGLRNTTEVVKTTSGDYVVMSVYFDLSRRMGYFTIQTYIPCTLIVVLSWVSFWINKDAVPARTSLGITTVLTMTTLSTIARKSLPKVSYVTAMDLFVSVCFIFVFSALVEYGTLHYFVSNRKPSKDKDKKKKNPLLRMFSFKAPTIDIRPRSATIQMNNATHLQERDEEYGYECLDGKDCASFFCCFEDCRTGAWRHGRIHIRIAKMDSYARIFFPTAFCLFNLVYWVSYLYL
Description: Positive allosteric modulation of synaptic alpha1beta2gamma2 GABA-A receptor (unknown origin) transfected in LTK cells assessed as potentiation of GABA-induced peak current amplitude at -80 mV holding potential preincubated for 30 secs followed by GABA stimulation for 2 secs by Q-patch assay. Type of series: cell-based.
Details: not given
As to `C[C@@]1(O)CC[C@H]2[C@H](CC[C@@H]3[C@@H]2CC[C@]2(C)[C@@H](C(=O)Cn4cnn(CC5CC5)c4=O)CC[C@@H]32)C1`, the pEC50 was 6.79.
As for `C[C@@]1(O)CC[C@H]2[C@H](CC[C@@H]3[C@@H]2CC[C@]2(C)[C@@H](C(=O)Cn4nnn(-c5cccc(F)c5)c4=O)CC[C@@H]32)C1`, the negative logarithm of the EC50 (pEC50) was 7.43.

System in another series: not listed separately
Description: Metabolic stability in Sprague-Dawley rat liver microsomes assessed as compound remaining at 1 uM preincubated for 10 mins followed by NADPH addition by LC-MS analysis. The class given is ADME, Microsome. As to conditions: read-out: Stability.
Take `C[C@@]1(O)CC[C@H]2[C@H](CC[C@@H]3[C@@H]2CC[C@]2(C)[C@@H](C(=O)Cn4cnn(CC5CC5)c4=O)CC[C@@H]32)C1`: the remaining at 1 µM stood at 5.9%.
Same read-out and setting: to `C[C@@]1(O)CC[C@H]2[C@H](CC[C@@H]3[C@@H]2CC[C@]2(C)[C@@H](C(=O)Cn4nnn(-c5cccc(F)c5)c4=O)CC[C@@H]32)C1` belongs 15.6%.

System in a further series: not listed separately
Description: Drug concentration in Sprague-Dawley rat brain at 24.4 micromol/kg, IG measured after 6 hrs by LC-MS/MS analysis. The class given is ADME, tissue-based. As to conditions: in vivo, po, BLD = below limit of detection, dose 24.4 µmol/kg.
With `C[C@@]1(O)CC[C@H]2[C@H](CC[C@@H]3[C@@H]2CC[C@]2(C)[C@@H](C(=O)Cn4nnn(-c5cccc(F)c5)c4=O)CC[C@@H]32)C1`, the Ct entry is “Bld”.

The target of another series is Gamma-aminobutyric acid receptor subunit alpha-4/beta3/delta (Homo sapiens) (UniProt P28472+P48169+O14764). Description: Positive allosteric modulation of extrasynaptic alpha4beta3delta GABA-A receptor (unknown origin) transfected in CHO cells assessed as potentiation of GABA-induced peak current amplitude by measuring maximal efficacy at 0.01 to 10 uM at -80 mV holding potential preincubated for 30 secs followed by GABA stimulation for 2 secs by manual patch assay relative to control. Type of series: cell-based. Particulars: filed as positive allosteric modulator, dose 0.01-10 µM, time 32.0 sec.
With `C[C@@]1(O)CC[C@H]2[C@H](CC[C@@H]3[C@@H]2CC[C@]2(C)[C@@H](C(=O)Cn4cnn(CC5CC5)c4=O)CC[C@@H]32)C1`, the Emax is 931%.
The same measure, in the same setting: for `C[C@@]1(O)CC[C@H]2[C@H](CC[C@@H]3[C@@H]2CC[C@]2(C)[C@@H](C(=O)Cn4nnn(-c5cccc(F)c5)c4=O)CC[C@@H]32)C1` the value was 602%.

In a further series the target is Gamma-aminobutyric acid receptor subunit alpha-4/beta3/delta (Homo sapiens, UniProt O14764+P28472+P48169). Description: Positive allosteric modulation of extrasynaptic alpha4beta3delta GABA-A receptor (unknown origin) transfected in CHO cells assessed as potentiation of GABA-induced peak current amplitude at -80 mV holding potential preincubated for 30 secs followed by GABA stimulation for 2 secs by manual patch assay. Type of series: cell-based.
Sequence of Gamma-aminobutyric acid receptor subunit alpha-4/beta3/delta (P28472 whole entry): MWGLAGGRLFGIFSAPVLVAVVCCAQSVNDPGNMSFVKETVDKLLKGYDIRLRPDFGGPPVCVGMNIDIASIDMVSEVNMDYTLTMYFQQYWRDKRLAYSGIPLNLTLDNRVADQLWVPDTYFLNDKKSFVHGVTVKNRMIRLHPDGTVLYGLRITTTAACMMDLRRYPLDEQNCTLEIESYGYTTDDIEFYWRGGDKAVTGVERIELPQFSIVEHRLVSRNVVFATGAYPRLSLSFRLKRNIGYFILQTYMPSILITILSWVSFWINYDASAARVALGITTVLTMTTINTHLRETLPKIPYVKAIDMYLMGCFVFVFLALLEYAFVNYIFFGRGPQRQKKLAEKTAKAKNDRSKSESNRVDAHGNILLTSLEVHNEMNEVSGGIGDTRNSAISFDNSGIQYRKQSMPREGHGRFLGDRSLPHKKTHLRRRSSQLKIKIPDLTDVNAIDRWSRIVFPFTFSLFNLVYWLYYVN
Sequence of Gamma-aminobutyric acid receptor subunit alpha-4/beta3/delta (P48169 whole entry): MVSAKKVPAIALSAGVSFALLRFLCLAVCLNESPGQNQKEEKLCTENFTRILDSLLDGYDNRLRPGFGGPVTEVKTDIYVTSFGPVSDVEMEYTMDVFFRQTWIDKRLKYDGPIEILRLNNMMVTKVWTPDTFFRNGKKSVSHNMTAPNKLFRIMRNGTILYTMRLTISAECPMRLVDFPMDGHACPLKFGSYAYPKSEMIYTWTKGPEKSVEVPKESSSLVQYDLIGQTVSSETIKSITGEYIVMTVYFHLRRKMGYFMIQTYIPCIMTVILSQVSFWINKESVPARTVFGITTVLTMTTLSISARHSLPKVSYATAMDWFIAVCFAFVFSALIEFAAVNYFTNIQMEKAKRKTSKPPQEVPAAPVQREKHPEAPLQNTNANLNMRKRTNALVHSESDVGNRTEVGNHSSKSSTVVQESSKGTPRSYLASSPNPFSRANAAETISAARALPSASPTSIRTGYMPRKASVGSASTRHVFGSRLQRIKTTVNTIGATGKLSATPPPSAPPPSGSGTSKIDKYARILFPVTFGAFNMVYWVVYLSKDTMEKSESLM
Sequence of Gamma-aminobutyric acid receptor subunit alpha-4/beta3/delta (O14764 whole entry): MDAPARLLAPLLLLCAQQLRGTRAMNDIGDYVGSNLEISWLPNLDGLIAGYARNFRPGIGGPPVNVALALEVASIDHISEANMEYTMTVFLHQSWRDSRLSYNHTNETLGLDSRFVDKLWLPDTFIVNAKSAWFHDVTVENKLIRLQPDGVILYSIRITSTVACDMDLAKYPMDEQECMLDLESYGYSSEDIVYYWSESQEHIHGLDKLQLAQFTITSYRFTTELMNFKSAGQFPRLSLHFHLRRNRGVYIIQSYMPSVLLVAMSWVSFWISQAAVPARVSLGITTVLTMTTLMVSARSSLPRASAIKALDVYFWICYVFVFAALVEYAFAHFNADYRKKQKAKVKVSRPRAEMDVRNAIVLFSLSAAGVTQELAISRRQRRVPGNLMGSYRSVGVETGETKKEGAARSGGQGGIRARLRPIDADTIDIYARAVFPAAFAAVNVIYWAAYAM
Details: not given
Consider `C[C@@]1(O)CC[C@H]2[C@H](CC[C@@H]3[C@@H]2CC[C@]2(C)[C@@H](C(=O)Cn4cnn(CC5CC5)c4=O)CC[C@@H]32)C1`, for which the pEC50 is 6.91.
Same read-out and setting: to `C[C@@]1(O)CC[C@H]2[C@H](CC[C@@H]3[C@@H]2CC[C@]2(C)[C@@H](C(=O)Cn4nnn(-c5cccc(F)c5)c4=O)CC[C@@H]32)C1` belongs 7.64.

System in another series: not listed separately
Nature of the series: Metabolic stability in Sprague-Dawley rat liver microsomes assessed as intrinsic clearance at 1 uM preincubated for 10 mins followed by NADPH addition by LC-MS analysis. The class given is ADME, Microsome. Particulars: read-out: CLH.
With `C[C@@]1(O)CC[C@H]2[C@H](CC[C@@H]3[C@@H]2CC[C@]2(C)[C@@H](C(=O)Cn4cnn(CC5CC5)c4=O)CC[C@@H]32)C1`, the CLint scaled at 1 µM was found to be 280 mL/min/kg.
Regarding `C[C@@]1(O)CC[C@H]2[C@H](CC[C@@H]3[C@@H]2CC[C@]2(C)[C@@H](C(=O)Cn4nnn(-c5cccc(F)c5)c4=O)CC[C@@H]32)C1`, the CLint scaled at 1 µM is 105 mL/min/kg.
